Data reported in patent US20150238626A1, “RECEPTOR LIGAND LINKED CYTOTOXIC MOLECULES” (ONTOCHEM GMBH, priority 2012, published 2015).
Read-outs that look alike come from different tables or passages of the source.

Experiments:
T-47D = test: Fluorometric resazurin-based cell proliferation assay, T-47D; set-up: species or system human; conditions: for IC50: Homo sapiens, T47D, read-out: IC50 T-47D
Method: (§1) To evaluate the anti-proliferative and cytotoxic effect, respectively, of the compounds, a fluorometric resazurin-based cell viability assay was used. Human cancer and non-cancer cell lines (primarily breast cancer) were seeded with low densities into 96-well plates (1,500-20,000 cells per well), and were allowed to adhere for 24 h. Subsequently, the compounds—dissolved to appropriate concentrations in medium—were added to the cells and incubated for 4-72 h. In case the compound treatment was shorter than 72 h, the incubation solution was discarded, cells were rinsed once with cell culture medium and were allowed to proliferate in compound-free medium until 72 h were reached. Subsequently, medium was replaced by 50 μM resazurin in medium, and the cells were incubated for 2 h. Finally, the conversion of resazurin to resorufin by viable, metabolically active cells was measured using a Synergy 2 multiwell plate reader (BioTek, Bad Friedrichshall, Germany) with 540 nm excitation and 590 nm emission filter setting.
(§2) The cytostatic/cytotoxic effects of the new molecules according to this invention were evaluated by using a fluorometric cell proliferation assay. A panel of cell lines (most of them breast cancer) were treated for 4-72 hours with compound. The fluorometric read-out for cell viability was done after 72 hours in any case.

MDA-MB-231 = test: Fluorometric resazurin-based cell proliferation assay, MDA-MB-231; conditions: Homo sapiens
Method: as §1, §2

[1] = system: caspases 3 and 7 in breast cancer cell lines; test: Apoptosis assay, effector caspases 3 and 7; type: cell-based, human; conditions: several breast cancer cell lines
Method: Compound-mediated induction of apoptosis was examined using comercially available luminescent caspase assays (Promega, Mannheim, Germany). Human cancer and non-cancer cell lines (primarily breast cancer) were seeded with densities depending on the incubation time into 96-well plates (5,000-20,000 cells per well for 48 h incubations; 15,000-40,000 cells per well for 16-24 h incubations), and were allowed to adhere for 24 h. Subsequently, the compounds—dissolved to appropriate concentrations in medium—were added to the cells in 70 μL per well. Cells were incubated for 16-48 h under standard growth conditions. For the last hour of incubation, 10 μL/well of 8× resazurin solution (400 μM) were added in order to multiplex the caspase activities with the cell number/cell viability. When the incubation was finished, conversion of resazurin to resorufin was measured as described above. […] Luminescence read-out was done using a Synergy 2 multiwell plate reader (BioTek, Bad Friedrichshall, Germany).
Cells were treated with the indicated compound concentrations for 24 h (A, C) and 48 h (B, D), respectively. Subsequently, activation of effector caspases 3/7 was measured using a luminescence-based caspase-Glo™ assay kit (Promega), and cell viability was fluorimetrically detected using a Resazurin-based cell viability assay. […]

MDA-MB-468 = test: Fluorometric resazurin-based cell proliferation assay, MDA-MB-468; conditions: Homo sapiens, read-out: IC50 MDA-MB-468
Method: as §1, §2

184B5 = test: Fluorometric resazurin-based cell proliferation assay, 184B5; conditions: Homo sapiens, 72 h compound treatment
Method: as §1, §2

MCF-7 = test: cells; type: cell-based, human; conditions: 72 h compound treatment
Method: as §1, §2

[2] = system: breast cancer cell lines (MCF-7, MDA-MB-468); test: Proteome analysis by SILAC; type: cell-based, human; conditions: various breast cancer cell lines
Method: SILAC was used for the examination of compound-mediated protein deregulations in the cells. In a first step, the incorporation rate of ^13C-labeled L-arginine (“heavy” medium) was determined for the used cell lines.
After finished incubation, the cells were harvested and lysed. […] The gel was cut into gel slices and in-gel digested with trypsin. The samples were measured with a LTQ Orbitrap Velos (Thermo Scientific) coupled with a nano-HPLC. The resulting mass spec-data were analyzed using the MaxQuant software.

HT-29 = test: Fluorometric resazurin-based cell proliferation assay, HT-29; set-up: species or system human; conditions: 72 h compound treatment
Method: as §1, §2

[3] = system: panel of cell lines (most of them breast cancer); test: Cell proliferation assay, statements over the panel of cell lines; type: cell-based, human; conditions: 72 h treatment
Method: as §1, §2

SK-N-MC = test: Fluorometric resazurin-based cell proliferation assay, SK-N-MC; conditions: Homo sapiens, 72 h compound treatment
Method: as §1, §2

HEK293 = test: Fluorometric resazurin-based cell proliferation assay, HEK293; conditions: Homo sapiens, 72 h compound treatment
Method: as §1, §2

[4] = MDA-MB-231, 72 h, read-out: IC50 MDA-MB-231

SMILES	IC50 (T-47D; 72 h) [nM]	IC50 (MDA-MB-231; [4]) [nM]	IC50 (MDA-MB-468; MDA-MB-468, 72 h) [nM]	IC50 (184B5) [nM]	IC50 (MCF-7; Homo sapiens, MCF7) [nM]	other results
CCC(C)[C@H](NC(=O)[C@H]1CCCCN1C)C(=O)N(C)[C@H](C[C@@H](OC(C)=O)c1nc(C(=O)N[C@@H](Cc2ccc(F)cc2)C[C@H](C)C(=O)NCCSSc2ccccn2)cs1)C(C)C (stereo partly drawn) [OC 169]	18.7	31	18.7	26.1	18.4	induction of apoptosis (caspase 3/7 activity) [1]: induction of apoptotic cell death mechanisms; regulation of protein expression (SILAC) [2]: comparable protein regulations
CCC(C)[C@H](NC(=O)[C@H]1CCCCN1C)C(=O)N(C)[C@H](C[C@@H](OC(C)=O)c1nc(C(=O)N[C@@H](Cc2ccc(F)cc2)C[C@H](C)C(=O)O)cs1)C(C)C (stereo partly drawn) [OC 501]	5.4	7.2	3.6	–	4.1	IC50 (HT-29; Homo sapiens, HT-29): 1.2 nM
CCCO[C@H](C[C@H](C(C)C)N(C)C(=O)[C@@H](NC(=O)[C@H]1CCCCN1C)C(C)CC)c1nc(C(=O)N[C@@H](Cc2ccccc2)C[C@H](C)C(=O)O)cs1 (stereo partly drawn) [OC 503]	8.3	10.9	8.2	–	4.2	IC50 (HT-29; Homo sapiens, HT-29): 0.8 nM
CCC(C)[C@H](NC(=O)[C@H]1CCCCN1C)C(=O)N(C)[C@H](C[C@@H](OC(C)=O)c1nc(C(=O)N[C@@H](Cc2ccccc2)C[C@H](C)C(=O)O)cs1)C(C)C (stereo partly drawn) [OC 509]	–	–	–	–	0.34	–
CCCO[C@H](C[C@H](C(C)C)N(CCC)C(=O)[C@@H](NC(=O)[C@H]1CCCCN1C)C(C)CC)c1nc(C(=O)N[C@@H](Cc2ccc(O)cc2)C[C@H](C)C(=O)O)cs1 (stereo partly drawn) [OC 515]	0.09	–	–	0.09	–	higher efficacy compared to the reference compound Paclitaxel (T-47D; T-47D cells, 72 h treatment): up to 300 fold
CCCO[C@H](C[C@H](C(C)C)N(CCC)C(=O)[C@@H](NC(=O)[C@H]1CCCCN1C)C(C)CC)c1nc(C(=O)N[C@@H](Cc2ccc(O)cc2)C[C@H](C)C(=O)NCCSSc2ccccn2)cs1 (stereo partly drawn) [OC 516]	0.2	–	–	–	–	–
CCC(C)[C@H](NC(=O)[C@H]1CCCCN1C)C(=O)N(COC(=O)CC(C)C)[C@H](C[C@@H](OC(C)=O)c1nc(C(=O)N[C@@H](Cc2ccc(O)cc2)C[C@H](C)C(=O)NCCSSc2ccccn2)cs1)C(C)C (stereo partly drawn) [OC 517]	4.9	1.6	1	6.2	1.9	activity compared to Paclitaxel [3]: several folds more active than Paclitaxel; IC50 (SK-N-MC): 1.1 nM; IC50 (HEK293): 5.9 nM
CC(=O)O[C@H]1C(=O)[C@@]2(C)[C@H]([C@H](OC(=O)c3ccccc3)[C@]3(O)C[C@H](OC(=O)[C@H](O)[C@@H](NC(=O)c4ccccc4)c4ccccc4)C(C)=C1C3(C)C)[C@]1(OC(C)=O)CO[C@@H]1C[C@@H]2O [Paclitaxel, reference compound]	–	–	–	–	25.5	IC50 (T-47D; 72 h compound treatment): 30.7 nM; IC50 (MDA-MB-231; MDA-MB-231, read-out: IC50 MDA-MB-231, 72 h compound treatment): 35.1 nM; IC50 (MDA-MB-468; MDA-MB-468, 72 h compound treatment): 31.1 nM
CC[C@H](C)[C@H](NC(=O)[C@H]1CCCCN1C)C(=O)N(COC(=O)CC(C)C)[C@H](C[C@@H](OC(C)=O)c1nc(C(=O)N[C@@H](Cc2ccc(O)cc2)C[C@H](C)C(=O)O)cs1)C(C)C [Tubulysin A, reference compound]	–	–	–	–	–	IC50 (MCF-7): 0.6 nM; IC50 (HT-29): 0.75 nM
